{"source": "the NIST ThermoML archive (doi:10.1021/acs.jced.8b01209)", "key": {"[1]": {"settings": "Crystal; DSC"}, "[2]": {"test": "Molar enthalpy of transition or fusion", "settings": "Crystal; DSC"}}, "note": "Numbers after ± are expanded uncertainties.", "data": [{"smiles": "Cc1ccc2cc(C)ccc2c1", "note": "[2,6-dimethylnaphthalene]", "values": [{"measurement": "Triple point temperature", "setting": "[1]", "value": "384.41 ± 1.2", "unit": "K"}, {"measurement": "Molar enthalpy of transition or fusion", "setting": "[2]", "value": "5.95 ± 0.136", "unit": "kcal/mol"}]}]}
